Numbers after ± are expanded uncertainties.
Conditions: Liquid, Closed cell (Static) method

SMILES | vapor or sublimation pressure (283.15 K) | vapor or sublimation pressure (293.15 K) | vapor or sublimation pressure (303.15 K) | vapor or sublimation pressure (313.15 K) | vapor or sublimation pressure (323.15 K)
C=C(F)C(F)(F)F [2,3,3,3-tetrafluoro-1-propene] | 437.9 ± 7 kPa | 591.5 ± 7.1 kPa | 782.9 ± 7.1 kPa | 1018.2 ± 7.2 kPa | 1302.4 ± 7.2 kPa
CCCC [butane] | 148.1 ± 1 kPa | 207.2 ± 1 kPa | 283.4 ± 1.1 kPa | 378.6 ± 1.1 kPa | 496.5 ± 1.2 kPa

— the NIST ThermoML archive (doi:10.1021/acs.jced.7b01073)
